Source: a melting point compilation (Tetko et al.; mined from patent text by program, amines drawn as free bases though some values may be those of a salt)

melting point | SMILES
158 to 161 °C | O=C1NC(=O)c2c1c(-c1ccccc1Cl)cc1c2c(Br)cn1CCCN1CCCC1
133 to 134 °C | CS(=O)c1ccc(-c2nn(CC3CC3)c(=O)cc2-c2ccc(F)cc2)cc1 (centres undefined)
98 to 100 °C | O=C(O)CN(CC(=O)O)C(=O)c1cc(OCCCCCCOc2ccc(-c3ccccc3)cc2)ccc1OCc1ccccc1
149 to 151 °C | CCCCOc1cc2cc(C(=O)OC)c(C(=O)OC)c(-c3ccncc3)c2cc1OC
102 to 103 °C | O=C(CBr)c1ccc(-c2ccc(F)cc2)cc1
178 to 181 °C | CCCCc1nc(C(O)(C(C)C)C(C)C)c(C(N)=O)n1Cc1ccc(-c2ccccc2C(=O)O)cc1
188 to 190 °C | O=C(O)c1cc(OCc2ccccc2)c(-c2ccccc2)c([N+](=O)[O-])c1
224 to 227 °C | COc1ccc2[nH]c3c(c2c1)C[C@@]1(C)C(=O)N(CCN2CCN(C)CC2)C(=O)N1[C@@H]3c1cccc(O)c1 (racemic)
160 to 162 °C | CCOC(=O)C1=C(C)Nc2c(C(=O)OCC)ncn2C1c1cccc([N+](=O)[O-])c1 (centres undefined)
144 to 147 °C | CCC(CC)(c1ccc(F)cc1F)c1c[nH]c2c(NS(C)(=O)=O)cccc12
147 to 148 °C | O=C(O)CON=C(c1ccc(Cl)cc1)c1ccc(Cl)cc1
131 to 132 °C | C=C(C)c1ccc(-c2ccc(OC(C)=O)cc2)cc1
99 to 102 °C | Cc1ccc(S(=O)(=O)c2ccc(O)cc2)c(Br)n1
148 to 150 °C | COc1nc2ccccc2nc1NC(=O)N1CCN(c2cccc(Br)c2)CC1
75 °C | CCOC(=O)C(CC)(Cc1ccc(OCCN2CCCCC2)cc1)S(=O)(=O)c1ccc(OC)cc1 (centres undefined)
150 to 152 °C | O=C(NC(Cc1ccccc1)C(=O)O)OCc1ccc(CCOc2ccccc2)cc1 (centres undefined)
61 to 62 °C | CON(C)C(=O)CCCCCCNC(=O)c1cn2c3c(cccc13)CCC2
187 to 189 °C | Cn1cc(C(=O)NCc2ccc(Cl)cc2)c(=O)c2cc(CN3CCOCC3)cc(F)c21
73 to 74 °C | CN1CCN(CC(O)COc2cccc3ccccc23)CC1 (centres undefined)

melting point | SMILES
144 to 146 °C | Cc1ccc(S(=O)(=O)n2ccc3c(C=O)cccc32)cc1
184 to 185 °C | CC(C)(C)c1cc(CCc2ccccc2NC(=O)NC2CCN(Cc3ccc(Cl)cc3)CC2)cc(C(C)(C)C)c1O
182 to 185 °C | COC(=O)CNc1cc(CS(=O)(=O)C=Cc2c(OC)cc(OC)cc2OC)ccc1OC
48 to 50 °C | Cc1ccc(C(C)(CCCCC(=O)CCCCC(C)(C(=O)O)c2ccc(C)cc2)C(=O)O)cc1 (centres undefined)
161 °C | CCOc1ccc2c(c1)n(C1CCCCC1)c(=O)n2Cc1ccc(C(=O)NC(C)(C)CN(C)C)cc1OC
144 to 145 °C | CCCc1c(OCCCOc2ccc(C(=O)O)cc2F)ccc(C(C)=O)c1OC(C)=O
125 to 127 °C | Cc1ccc(S(=O)(=O)N2Cc3cscc3C2)cc1
93 to 95 °C | COc1cc(C(=O)N2CCCC(CCN3CCC(C(=O)c4nc5ccccc5n4Cc4ccc(F)cc4)CC3)(c3ccc(Cl)c(Cl)c3)C2)cc(OC)c1OC (centres undefined)
73 to 74 °C | COC(=O)c1cc(OCc2ccccc2)nn1C(C)C
241 to 243 °C | N#Cc1ccc(C(=O)N2CCc3cc(S(=O)(=O)N4CC(c5ccccc5)NC4=O)ccc32)cc1 (centres undefined)
175 °C | COc1ccc(CNc2nc(N)c(C(=O)c3cc(C)sc3C)s2)cc1
184 to 185 °C | CCS(=O)(=O)CCC(=O)NNC(=O)N1Cc2cc(Cl)ccc2Oc2ccccc21
181 to 182 °C | CCOC(=O)c1c(CS(=O)(=O)c2nc3ccccc3[nH]2)nc2cc(OC)c(OC)cc2c1-c1ccc(OC)c(OC)c1
192 to 194 °C | Cc1nc2c(O)c(CCC(=O)c3ccccc3)c(C(=O)N(C)C)cc2n1COCC[Si](C)(C)C
162 °C | COc1ccc(-c2nc3ccc(C=Cc4ccc5nc(-c6ccc(OC)cc6)oc5c4)cc3o2)cc1
160 to 163 °C | COc1ccc(-c2cc(C)cn2-c2ccc(S(N)(=O)=O)cc2)cc1Cl
132 to 133 °C | COc1cccc(-c2nc3n(n2)CCc2cc(OC)c(OC)cc2-3)c1
54 to 56 °C | COc1ccc(/C(=C\C=C\C(=O)Oc2ccc([N+](=O)[O-])cc2)c2cccnc2)cc1
74 °C | CCCCCCC1CCC(c2ccc(C(=O)CC(C)=O)cc2)CC1 (centres undefined)

Continued, molecule first:

SMILES | melting point
CC(=O)OC1CSC(Oc2cnc(Cl)c(F)c2)C(OC(C)=O)C1OC(C)=O (centres undefined) | 158 to 162 °C
Cc1ccc(F)cc1-c1noc(CCC#Cc2ccccn2)n1 | 90 to 91 °C
CCCCCc1cc2c(nc(O)n2CC(C)(C)O)c(N)n1 | 240 to 243 °C
Cc1cccc(-c2c(C)n(C)c(=O)n(C)c2=O)c1 | 137 to 139 °C
CC(C)NC(=S)NC(=O)c1ccc(C#N)cc1 | 156 to 157 °C
CCCc1[nH]c(C(=O)OCC)c(CCC)c1C | 78 to 80 °C
OC(Cn1ccnc1)c1ccccc1 (centres undefined) | 146 to 148 °C
O=c1nc(-c2ccccc2F)c2cc(Cl)ccc2[nH]1 | > 300 °C
Cc1ccc(C(=O)Nc2ccc(-n3ccnc3)c(C(F)(F)F)c2)cc1Nc1nccc(-c2cccnc2)n1 | 226 to 229 °C
C=CC=CCC1CC(NC(=O)C(F)(F)F)C(O)C(C)O1 (centres undefined) | 111 to 112 °C
N#Cc1cccc(N2CCc3cc(Cl)ccc32)c1 | 120 to 121 °C
O=C1C(Br)=C(c2cn(S(=O)(=O)c3ccccc3)c3ccccc23)C(=O)N1COCc1ccccc1 | 49 to 51 °C
COc1ccc(C2=NC(C)(C)CO2)c(Cc2ccccc2)c1OC | 81 to 82 °C
CCCCCCCCCCCCCCc1cc(C(=O)O)c[nH]1 | 83 to 85 °C
O=C(O)c1cc(O)cc2ccccc12 | 210 to 212 °C
COc1ccc(-c2nc(N3CCOCC3)c3c(C)c(C#N)sc3n2)cc1OC | 194 to 196 °C
CC(=O)OCc1nc(Cl)cc(N2CCCC2)n1 | 101 to 103 °C
CC(C)(C)c1cc(SCN2CCN(CSc3cc(C(C)(C)C)c(O)c(C(C)(C)C)c3)C2=O)cc(C(C)(C)C)c1O | 173 to 176 °C
Oc1ccc(Cl)cc1I | 79 to 82 °C
COC(=O)c1ccc(OC)cc1S | 35 to 37 °C
CC(O)c1ccc(F)c(-c2ccc3nc(-c4ccc(Cl)cc4)cn3c2)c1 (centres undefined) | 180 to 182 °C

SMILES | melting point
COc1ccccc1C1C2CCC(C2)C12CCC(=S)N2 (centres undefined) | 194 °C
OCc1nc2cc(Cl)cnc2[nH]1 | 209 to 211 °C
O=C1N(Cc2ccc(C(F)(F)F)o2)c2c(C(F)(F)F)cccc2C12COc1cc3c(cc12)OCO3 (centres undefined) | 95 to 98 °C
CCOC(=O)C(=NOC)c1nc(N)cc(Cl)n1 | 136 to 142 °C
Cc1noc(NS(=O)(=O)c2ccc(-c3ccc(C(F)(F)F)cc3)s2)c1Br | 132 °C
Cc1sc2cc(C3=NCCS3)[nH]c2c1N(C)S(=O)(=O)c1cccs1 | 140 °C
O=C(Nc1ccc(NC(=O)OCCCl)nc1)OCCCl | 198 °C
CC(C)(C)Sc1cccc(C(F)(F)F)c1S(N)(=O)=O | 91 °C
COc1cccn2c(=O)c3c(nc12)C(=Cc1ccccc1Cl)CC3 | 247 to 248 °C
COC(=O)c1ccc(C)cc1N | 41 to 43 °C
CCCCCCCCNC(=O)/C=C\SC(=O)c1ccc(F)cc1 | 87 to 91 °C
O=C(O)c1cc(Br)nn1-c1ncccc1Cl | 200 to 201 °C
CC(C)(C)[C@@H]1O[C@@H](O)[C@@H]2[C@H]1C2(C)C | 126 °C
CCC(=O)C1=CCC(c2c(C)c(C)c3c(c2Cl)CC(C)(CC)C3)CC1=O (centres undefined) | 55 to 57 °C
Cc1ccc(C#Cc2ccc3c(c2)C(C)(C)CCC3(C)C)cc1 | 99 °C
CN1CCN(c2cc3nc(C(C)(C)C)sc3cc2N=C=S)CC1 | 124 to 126 °C
N#CCCCCCCNCc1ccc(O)cc1 | 42 to 44.5 °C
Cc1cc2c(cc1Br)C(O)(c1ccccn1)CC(C)(C)CO2 (centres undefined) | 147 °C
CCn1cc(C(=O)O)c(=O)c2cc(F)c(N3CC4CCCC3CN4)c(F)c21 (centres undefined) | 245 to 250 °C
CNc1cc(Oc2ccc(NC(=O)Nc3ccc(-c4cccnc4)c(C(F)(F)F)c3)cc2)ncn1 | 118 to 123 °C
CCCCCCc1csc2c(CCCCCC)csc12 | 57.5 to 59.1 °C

SMILES | melting point
CC(=O)N(c1cc2occc(=O)c2cc1Oc1ccccc1)S(C)(=O)=O | 166 to 169 °C
CC1=NC(NC(=O)Nc2cccc(C#N)c2)C(=O)N(CC(=O)C(C)(C)C)c2ccccc21 (centres undefined) | 246 to 247 °C
CCCCNC(=O)c1ccco1 | 43.8 °C
O[C@@H]1CN=C(c2ccoc2)O[C@H]1c1ccccc1 (racemic) | 160 °C
Cc1c(C)c(C)c2c(c1C)C=CC(C)(COc1ccc([N+](=O)[O-])cc1)O2 (centres undefined) | 142 to 145 °C
N=C(NO)c1ccc(-c2ccc(-c3ccc(C(=N)NO)o3)o2)nc1 | 248 to 250 °C
CSc1ccc(-n2cnc3ccc(-c4nnc(C5CC5)o4)cc32)cc1 | 198 to 199 °C
CN(C)CCNc1cc(Cl)nc(-c2ccc(Cl)c(Cl)c2)n1 | 99.5 to 102 °C
CN1CCN2c3ccccc3Cn3cccc3C2C1 (centres undefined) | 98 to 100 °C
Cc1nc2scc(C)n2c(=O)c1CCN1CCC(c2noc3cc(F)ccc23)CC1 | 231 °C
CN(Cc1ccc2c(Br)c(O)ccc2c1)C(=O)c1cn(C)c2ccccc12 | 189 to 190 °C
N#CNc1ccccc1I | 117 to 118 °C
COc1cc(Nc2c(C#N)cnc3cc(-c4ccc(C5OCCO5)o4)ccc23)c(Cl)cc1Cl | 224 to 229 °C
O=C(Nc1ncc[nH]1)c1cnc2c(C(F)(F)F)cccc2c1O | 211 °C
CCc1[nH]n(C2CCCC2)c2nc(-c3ccnc(C)c3)nc(=O)c1-2 | 258 to 259 °C
CC(C)(C)NC(=O)OC1SCN(c2ccccc2)C1=O (centres undefined) | 146 to 148 °C
CCOc1cc(=O)[nH]c2ccccc12 | 223 to 226 °C
O=C1NC(=O)c2c1c(-c1ccccc1Cl)cc1[nH]c3ccc(C(O)CO)cc3c21 (centres undefined) | 265 to 268 °C
CCOC(CN1C(=O)C2=C(c3cccs3)N(CC(OCC)OCC)C(=O)C2=C1c1cccs1)OCC | 167 to 169 °C
